Source: PubChem BioAssay AID1919009 (Molecular Pharmacology Branch, DTP, NCI, 2023)

System: K24384-001-R-PDC complex spheroid growth
Assay: Anticancer human tumor K24384-001-R-PDC patient-derived pancreatic adenocarcinoma cell line growth inhibition [AhR]
Conditions: for IC50: curve of first compound; for viability, T/C: stronger effect = lower value
Method in brief: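 Complex tumor spheroids co-cultured with HUVEC and human MSC stroma; AhR antagonists tested in combination with standard-of-care and investigational agents. Top concentration at or near clinical Cmax (else 10 microM), half-log dilutions; growth expressed as percent test/control.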

[1] = second compound 0.1 µM, first compound 0.0316 µM
[2] = second compound 0.1 µM, first compound 0.1 µM
[3] = second compound 0.316 µM, first compound 0.0316 µM
[4] = second compound 0.316 µM, first compound 0.1 µM
[5] = second compound 1 µM, first compound 0.0316 µM
[6] = second compound 1 µM, first compound 0.1 µM
[7] = second compound 3.16 µM, first compound 0.0316 µM
[8] = second compound 3.16 µM, first compound 0.1 µM
[9] = second compound 10 µM, first compound 0.0316 µM
[10] = second compound 10 µM, first compound 0.1 µM
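Throughout, for viability, T/C: percent of DMSO vehicle-treated spheroid viability set as 100%.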

`CC1(C)CCC(CN2CCN(c3ccc(C(=O)NS(=O)(=O)c4ccc(NCC5CCOCC5)c([N+](=O)[O-])c4)c(Oc4cnc5[nH]ccc5c4)c3)CC2)=C(c2ccc(Cl)cc2)C1` + Cc1cncc(-c2nc(NCCc3c[nH]c4ccccc34)c3ncn(C(C)C)c3n2)c1 showed an IC50 (second compound 0.1 µM) of 6.2 µM, an IC50 (second compound 0.316 µM) of 5.76 µM and an IC50 (second compound 1 µM) of 7.2 µM. For the same compound, the IC50 (second compound 3.16 µM) was 7.67 µM, the IC50 (second compound 10 µM) was under 0.0316 µM and the viability, T/C [1] was 137%. For the same compound, the viability, T/C [2] was 128%, the viability, T/C (second compound 0.1 µM, first compound 0.316 µM) was 129% and the viability, T/C (second compound 0.1 µM, first compound 1 µM) was 86.7%. It also gave a viability, T/C (second compound 0.1 µM, first compound 3.16 µM) of 101%, a viability, T/C (second compound 0.1 µM, first compound 10 µM) of 22% and a viability, T/C [3] of 134%. It also gave a viability, T/C [4] of 140%, a viability, T/C (second compound 0.316 µM, first compound 0.316 µM) of 126% and a viability, T/C (second compound 0.316 µM, first compound 1 µM) of 95.5%. The viability, T/C (second compound 0.316 µM, first compound 3.16 µM) was 92.7%, the viability, T/C (second compound 0.316 µM, first compound 10 µM) was 18.6% and the viability, T/C [5] was 117%. It also gave a viability, T/C [6] of 157%, a viability, T/C (second compound 1 µM, first compound 0.316 µM) of 137% and a viability, T/C (second compound 1 µM, first compound 1 µM) of 122%. For the same compound, the viability, T/C (second compound 1 µM, first compound 3.16 µM) was 119%, the viability, T/C (second compound 1 µM, first compound 10 µM) was 23.1% and the viability, T/C [7] was 116%. The viability, T/C [8] was 148%, the viability, T/C (second compound 3.16 µM, first compound 0.316 µM) was 138% and the viability, T/C (second compound 3.16 µM, first compound 1 µM) was 119%. For the same compound, the viability, T/C (second compound 3.16 µM, first compound 3.16 µM) was 124%, the viability, T/C (second compound 3.16 µM, first compound 10 µM) was 27.5% and the viability, T/C [9] was 20.5%. For the same compound, the viability, T/C [10] was 21%, the viability, T/C (second compound 10 µM, first compound 0.316 µM) was 16.6% and the viability, T/C (second compound 10 µM, first compound 1 µM) was 19.1%. The viability, T/C (second compound 10 µM, first compound 3.16 µM) was 19.9% and the viability, T/C (second compound 10 µM, first compound 10 µM) was 25%.
With `CCN(c1cc(-c2ccc(CN3CCOCC3)cc2)cc(C(=O)NCc2c(C)cc(C)[nH]c2=O)c1C)C1CCOCC1` + Cc1cncc(-c2nc(NCCc3c[nH]c4ccccc34)c3ncn(C(C)C)c3n2)c1 the IC50 (second compound 0.1 µM) was over 3 µM, the IC50 (second compound 0.316 µM) was over 3 µM and the IC50 (second compound 1 µM) was over 3 µM. For the same compound, the IC50 (second compound 3.16 µM) was over 3 µM, the IC50 (second compound 10 µM) was under 0.00949 µM and the viability, T/C (second compound 0.1 µM, first compound 0.00949 µM) was 118%. The viability, T/C (second compound 0.1 µM, first compound 0.03 µM) was 126%, the viability, T/C (second compound 0.1 µM, first compound 0.0949 µM) was 129% and the viability, T/C (second compound 0.1 µM, first compound 0.3 µM) was 115%. The viability, T/C (second compound 0.1 µM, first compound 0.949 µM) was 130%, the viability, T/C (second compound 0.1 µM, first compound 3 µM) was 133% and the viability, T/C (second compound 0.316 µM, first compound 0.00949 µM) was 138%. The viability, T/C (second compound 0.316 µM, first compound 0.03 µM) was 139%, the viability, T/C (second compound 0.316 µM, first compound 0.0949 µM) was 150% and the viability, T/C (second compound 0.316 µM, first compound 0.3 µM) was 132%. The viability, T/C (second compound 0.316 µM, first compound 0.949 µM) was 120%, the viability, T/C (second compound 0.316 µM, first compound 3 µM) was 108% and the viability, T/C (second compound 1 µM, first compound 0.00949 µM) was 126%. The viability, T/C (second compound 1 µM, first compound 0.03 µM) was 150%, the viability, T/C (second compound 1 µM, first compound 0.0949 µM) was 144% and the viability, T/C (second compound 1 µM, first compound 0.3 µM) was 133%. For the same compound, the viability, T/C (second compound 1 µM, first compound 0.949 µM) was 128%, the viability, T/C (second compound 1 µM, first compound 3 µM) was 120% and the viability, T/C (second compound 3.16 µM, first compound 0.00949 µM) was 116%. For the same compound, the viability, T/C (second compound 3.16 µM, first compound 0.03 µM) was 101%, the viability, T/C (second compound 3.16 µM, first compound 0.0949 µM) was 120% and the viability, T/C (second compound 3.16 µM, first compound 0.3 µM) was 113%. The viability, T/C (second compound 3.16 µM, first compound 0.949 µM) was 101%, the viability, T/C (second compound 3.16 µM, first compound 3 µM) was 96.1% and the viability, T/C (second compound 10 µM, first compound 0.00949 µM) was 18.7%. The viability, T/C (second compound 10 µM, first compound 0.03 µM) was 17.1%, the viability, T/C (second compound 10 µM, first compound 0.0949 µM) was 17.3% and the viability, T/C (second compound 10 µM, first compound 0.3 µM) was 11.9%. It also gave a viability, T/C (second compound 10 µM, first compound 0.949 µM) of 10.1% and a viability, T/C (second compound 10 µM, first compound 3 µM) of 8.09%.
Compound `Cn1ncnc1C1c2n[nH]c(=O)c3cc(F)cc(c23)NC1c1ccc(F)cc1` (stereo not given) + Cc1cncc(-c2nc(NCCc3c[nH]c4ccccc34)c3ncn(C(C)C)c3n2)c1 has an IC50 (second compound 0.1 µM) of over 0.1 µM, an IC50 (second compound 0.316 µM) of over 0.1 µM and an IC50 (second compound 1 µM) of over 0.1 µM. For the same compound, the IC50 (second compound 3.16 µM) was over 0.1 µM, the IC50 (second compound 10 µM) was under 0.000316 µM and the viability, T/C (second compound 0.1 µM, first compound 0.000316 µM) was 94.1%. The viability, T/C (second compound 0.1 µM, first compound 0.001 µM) was 93.8%, the viability, T/C (second compound 0.1 µM, first compound 0.00316 µM) was 99.8% and the viability, T/C (second compound 0.1 µM, first compound 0.01 µM) was 107%. For the same compound, the viability, T/C [1] was 94.7%, the viability, T/C [2] was 76.3% and the viability, T/C (second compound 0.316 µM, first compound 0.000316 µM) was 98.1%. It also gave a viability, T/C (second compound 0.316 µM, first compound 0.001 µM) of 108%, a viability, T/C (second compound 0.316 µM, first compound 0.00316 µM) of 104% and a viability, T/C (second compound 0.316 µM, first compound 0.01 µM) of 92.2%. For the same compound, the viability, T/C [3] was 99.4%, the viability, T/C [4] was 71.8% and the viability, T/C (second compound 1 µM, first compound 0.000316 µM) was 104%. It also gave a viability, T/C (second compound 1 µM, first compound 0.001 µM) of 110%, a viability, T/C (second compound 1 µM, first compound 0.00316 µM) of 105% and a viability, T/C (second compound 1 µM, first compound 0.01 µM) of 101%. For the same compound, the viability, T/C [5] was 74.3%, the viability, T/C [6] was 66.8% and the viability, T/C (second compound 3.16 µM, first compound 0.000316 µM) was 101%. It also gave a viability, T/C (second compound 3.16 µM, first compound 0.001 µM) of 86.7%, a viability, T/C (second compound 3.16 µM, first compound 0.00316 µM) of 104% and a viability, T/C (second compound 3.16 µM, first compound 0.01 µM) of 64.8%. It also gave a viability, T/C [7] of 69.8%, a viability, T/C [8] of 71.5% and a viability, T/C (second compound 10 µM, first compound 0.000316 µM) of 15.3%. The viability, T/C (second compound 10 µM, first compound 0.001 µM) was 12%, the viability, T/C (second compound 10 µM, first compound 0.00316 µM) was 14.2% and the viability, T/C (second compound 10 µM, first compound 0.01 µM) was 11.5%. For the same compound, the viability, T/C [9] was 12.1% and the viability, T/C [10] was 14.5%.
